Measured values reported in PubChem BioAssay (NCI).
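These data come from cells grown in 96-well plates and exposed to compound for 48 hours at five concentrations. Here, GI50 denotes the concentration required for 50% inhibition of growth. At the TGI there is no net growth.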

Tests used:
Assay in all cases: inhibition of tumour cell growth, NCI panel, 48 h
SF-268 CNS = tested on: SF-268 CNS
OVCAR-8 ovarian = tested on: OVCAR-8 ovarian
NCI/ADR-RES ovarian = tested on: NCI/ADR-RES ovarian
HL-60(TB) leukemia = tested on: HL-60(TB) leukemia
EKVX NSCLC = tested on: EKVX NSCLC
SNB-75 CNS = tested on: SNB-75 CNS
NCI-H23 lung = tested on: NCI-H23 lung
IGROV1 ovarian = tested on: IGROV1 ovarian
HOP-62 NSCLC = tested on: HOP-62 NSCLC
OVCAR-3 ovarian = tested on: OVCAR-3 ovarian

SMILES	GI50 (SF-268 CNS) [µM]	GI50 (OVCAR-8 ovarian) [nM]	TGI (OVCAR-8 ovarian) [µM]	GI50 (NCI/ADR-RES ovarian) [µM]	GI50 (HL-60(TB) leukemia) [nM]	TGI (HL-60(TB) leukemia) [µM]	GI50 (EKVX NSCLC) [µM]	TGI (EKVX NSCLC) [µM]	GI50 (SNB-75 CNS) [nM]	TGI (SNB-75 CNS) [µM]	GI50 (NCI-H23 lung) [µM]	TGI (NCI-H23 lung) [µM]	GI50 (IGROV1 ovarian) [µM]	GI50 (HOP-62 NSCLC) [µM]	TGI (HOP-62 NSCLC) [µM]	GI50 (OVCAR-3 ovarian) [nM]	TGI (OVCAR-3 ovarian) [µM]	TGI (SF-268 CNS) [µM]	TGI (NCI/ADR-RES ovarian) [µM]	TGI (IGROV1 ovarian) [µM]
Nc1ncnc2c1c(C(=O)NO)cn2C1OC(CO)C(O)C1O (configuration not stated)	0.397	353	> 100	0.137	158	0.457	0.776	15.7	509	8.04	0.329	2.89	0.279	0.38	> 22	278	2.42			
COc1ccc2cc(C(=O)/C=C/c3ccco3)ccc2c1	20	34200	> 100	23.8	24600	83.3	6.33	26.2	> 100000	> 100	19.5	42.7	30.3			44000	> 100	45.5	63.8	> 100
O=C1c2ccccc2CCC1(Br)Br	4.1	2360	6.04	3.4	2040	5.22			3230	16.2	1.99	4.9	2.59	6.32	17.8	1750	3.17	14.1	17.3	5.98
O=C(Nc1ccc(Cl)cc1F)c1cc(Cl)ccc1O	0.52	619	> 37.2	0.364	389	1.96	0.891	8.27	456	3.77	0.294	1.91	0.247	0.999	> 24.5	412	> 20.5	> 27.6	2.38	> 100
Cc1ccc(C)c(N2C(=O)C(=O)c3c(C)ccc(C)c32)c1			51.5			> 100		> 100		> 100		70			> 100		34.1	78.2	62.9	43.4
COc1ccc(NC(=O)CC(=O)n2nc(-c3ccccc3)c(N=Nc3ccccc3C)c2-c2ccccc2)cc1			66			> 100		45.2		36.6		51.1			33.8		33.3	35.7	> 100	46.2
C(=C\c1nc2ccccc2s1)/c1ccc(N2CCOCC2)s1	44	35500	> 100	37.1	> 100000	> 100	30.1	> 100	31600	> 100	80.9	> 100	58.3	45.5	> 100	61700	> 100	> 100	> 100	> 100
CS(=O)(=O)c1ccc(-c2[nH]c3ccc(F)cc3c2/C=N/NC(N)=S)cc1	2.42	2760	> 100	1.17	396	5.05	3.94	> 100	1850	> 100	4.66	> 100	4.95	1.64	> 100	446	12.1	> 100	> 100	> 100
Cc1cccc2c1NC(=O)C2(c1ccc(O)cc1)c1ccc(O)cc1	19.8	< 19.2	13.7	0.133	7640	39.6	16.4	98.9	60.1	37.5	0.0459	31.8	0.0634	14.8	38.3	< 10	14	> 100	> 100	47.6
O=C(Nc1ccc(O)c(NS(=O)(=O)c2ccc(F)cc2)c1)c1ccc(-c2ccccc2)cc1	6.49	5320	> 100	5.67	1400	5.34	7.17	26.4	2680	15.7	10.5	24.3	4.65	19.9	40.2	4720	22.1	33.2	20.7	20.5
O=C(O)CP(=O)(c1ccccc1)c1ccccc1.O=C(O)CP(=O)(c1ccccc1)c1ccccc1.[Cd]	37.3	32700	> 100	21.9	15900	60.7			16000	32.4	20.2	41.9	16.6	18.6	46.1	2560	15.4	> 100	52.2	37.1
O=C(OC(CNc1c(C(=O)c2ccccc2)c(=O)n(Cc2ccccc2)c(=O)n1Cc1ccccc1)CN1CCCCC1)c1ccccc1 (configuration not stated)	24.1	18300	39.7	17.6	14800	33.8	38.3	> 100			18.5	39.2	17.4	18	33.6	18000	35.2	53.2	34.5	36.9
COc1ccc(C(=O)c2cc(OC)c(OC)c(OC)c2)cc1/C=C/C(=O)c1ccc2c(c1)OCO2	2.95	2320	13.1	1.46	2160	> 100			3110	15.6	2.67	8.22	3.52	4.4	19.5	1960	7.24	> 100	15.2	14.1
